Data from patent publication US10597388B2, “Pyridazinone herbicides” (FMC CORPORATION, priority 2014, dated 2020).

Tests used:
Assay in all cases: Test D controlled growth environment herbicide test, pre- and postemergence
Format in all cases: in vivo
[1] = test system: oat, wild (wild oat, Avena fatua)
How it was run: (§1)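 Rating is visual, 0–100 scale (100 = complete control), made against untreated plants 14–21 d after treatment in controlled growth conditions. Postemergence sprays went onto 1- to 4-leaf plants in peat medium; preemergence sprays onto silt loam after sowing; formulation included a surfactant.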

[2] = test system: pigweed (Amaranthus retroflexus)
How it was run: as §1

[3] = test system: buckwheat, wild (wild buckwheat, Polygonum convolvulus)
How it was run: as §1

[4] = test system: speedwell (bird's-eye speedwell, Veronica persica)
How it was run: as §1

[5] = test system: field poppy (Papaver rhoeas)
How it was run: as §1

[6] = test system: oilseed rape (Brassica napus)
How it was run: as §1

[7] = test system: mustard, wild (wild mustard, Sinapis arvensis)
How it was run: as §1

[8] = test system: bluegrass (annual bluegrass, Poa annua)
How it was run: as §1

[9] = test system: chamomile (scentless chamomile, Matricaria inodora)
How it was run: as §1

[10] = test system: barley, spring (spring barley, Hordeum vulgare)
How it was run: as §1

[11] = test system: galium (catchweed bedstraw, Galium aparine)
How it was run: as §1

[12] = test system: radish, wild (wild radish, Raphanus raphanistrum)
How it was run: as §1

[13] = test system: barley, winter (winter barley, Hordeum vulgare)
How it was run: as §1

[14] = Postemergence, 31 g ai/ha, scale 0 to 100 (0 no effect, 100 complete control)
[15] = Postemergence, 125 g ai/ha, visual rating on scale 0 (no effect) to 100 (complete control), 14 to 21 d
[16] = Postemergence, 250 g ai/ha, scale 0 to 100 (0 no effect, 100 complete control)
[17] = Preemergence, 62 g ai/ha, scale 0 to 100 (0 no effect, 100 complete control)
[18] = Preemergence, 125 g ai/ha, scale 0 to 100 (0 no effect, 100 complete control)
[19] = Preemergence, 250 g ai/ha, scale 0 to 100 (0 no effect, 100 complete control)
[20] = postemergence, 62 g ai/ha, scale 0 to 100, 0 no effect, 100 complete control

In the case of `CCC(=O)Oc1c(C)nn(C)c(=O)c1-c1c(C)sc2ccc(C)cc12` [Compound 42], the “Oat, Wild plant response rating” value [1, 14] is reported as 75, the “Plant response rating, Oat, Wild” value [1, 15] is reported as 85 and the “Plant response rating, Oat, Wild” value [1, 16] is reported as 95. For the same molecule, the “Plant response rating (scale of 0 to 100), Oat, Wild” value ([1]; Preemergence, 31 g ai/ha) was 90, the “Plant response rating, Oat, Wild” value [1, 17] was 90 and the “Plant response rating, Oat, Wild” value [1, 18] was 95. For the same molecule, the “Plant response rating, Oat, Wild” value [1, 19] was 95, the “Plant response rating, Oat, Wild” value [1, 20] was 85 and the “Pigweed plant response rating” value [2, 14] was 85. The “Plant response rating, Pigweed” value [2, 15] was 90, the “Plant response rating, Pigweed” value [2, 16] was 100 and the “Plant response rating (scale of 0 to 100), Pigweed” value ([2]; Preemergence, 31 g ai/ha) was 90. The “Plant response rating, Pigweed” value [2, 17] was 100, the “Plant response rating, Pigweed” value [2, 18] was 100 and the “Plant response rating, Pigweed” value [2, 19] was 100. The “Plant response rating, Pigweed” value [2, 20] was 90, the “Buckwheat, Wild plant response rating” value [3, 14] was 80 and the “Plant response rating, Buckwheat, Wild” value [3, 15] was 100. The “Plant response rating, Buckwheat, Wild” value [3, 16] was 100, the “Plant response rating (scale of 0 to 100), Buckwheat, Wild” value ([3]; Preemergence, 31 g ai/ha) was 20 and the “Plant response rating, Buckwheat, Wild” value [3, 17] was 25. The “Plant response rating, Buckwheat, Wild” value [3, 18] was 80, the “Plant response rating, Buckwheat, Wild” value [3, 19] was 60 and the “Plant response rating, Buckwheat, Wild” value [3, 20] was 95. For the same molecule, the “Speedwell plant response rating” value [4, 14] was 10, the “Plant response rating, Speedwell” value [4, 15] was 45 and the “Plant response rating, Speedwell” value [4, 16] was 45. The “Plant response rating (scale of 0 to 100), Speedwell” value ([4]; Preemergence, 31 g ai/ha) was 70, the “Plant response rating, Speedwell” value [4, 17] was 75 and the “Plant response rating, Speedwell” value [4, 18] was 70. For the same molecule, the “Plant response rating, Speedwell” value [4, 19] was 100, the “Plant response rating, Speedwell” value [4, 20] was 50 and the “Field Poppy plant response rating” value [5, 14] was 65. The “Plant response rating, Field Poppy” value [5, 15] was 100, the “Plant response rating, Field Poppy” value [5, 16] was 100 and the “Plant response rating (scale of 0 to 100), Field Poppy” value ([5]; Preemergence, 31 g ai/ha) was 100. For the same molecule, the “Plant response rating, Field Poppy” value [5, 17] was 100, the “Plant response rating, Field Poppy” value [5, 18] was 100 and the “Plant response rating, Field Poppy” value [5, 19] was 100. The “Plant response rating, Field Poppy” value [5, 20] was 85, the “Oilseed Rape plant response rating” value [6, 14] was 10 and the “Plant response rating, Oilseed Rape” value [6, 15] was 60. The “Plant response rating, Oilseed Rape” value [6, 16] was 70, the “Plant response rating (scale of 0 to 100), Oilseed Rape” value ([6]; Preemergence, 31 g ai/ha) was 0 and the “Plant response rating, Oilseed Rape” value [6, 17] was 0. The “Plant response rating, Oilseed Rape” value [6, 18] was 0, the “Plant response rating, Oilseed Rape” value [6, 19] was 0 and the “Plant response rating, Oilseed Rape” value [6, 20] was 50. For the same molecule, the “Mustard, Wild plant response rating” value [7, 14] was 25, the “Plant response rating, Mustard, Wild” value [7, 15] was 70 and the “Plant response rating, Mustard, Wild” value [7, 16] was 80. The “Plant response rating (scale of 0 to 100), Mustard, Wild” value ([7]; Preemergence, 31 g ai/ha) was 15, the “Plant response rating, Mustard, Wild” value [7, 17] was 15 and the “Plant response rating, Mustard, Wild” value [7, 18] was 20. The “Plant response rating, Mustard, Wild” value [7, 19] was 25, the “Plant response rating, Mustard, Wild” value [7, 20] was 70 and the “Bluegrass plant response rating” value [8, 14] was 15. The “Plant response rating, Bluegrass” value [8, 15] was 20, the “Plant response rating, Bluegrass” value [8, 16] was 35 and the “Plant response rating (scale of 0 to 100), Bluegrass” value ([8]; Preemergence, 31 g ai/ha) was 35. For the same molecule, the “Plant response rating, Bluegrass” value [8, 17] was 45, the “Plant response rating, Bluegrass” value [8, 18] was 65 and the “Bluegrass plant response rating” value [8, 19] was 80. The “Plant response rating, Bluegrass” value [8, 20] was 20, the “Chamomile plant response rating” value [9, 14] was 75 and the “Plant response rating, Chamomile” value [9, 15] was 100. For the same molecule, the “Plant response rating, Chamomile” value [9, 16] was 100, the “Plant response rating (scale of 0 to 100), Chamomile” value ([9]; Preemergence, 31 g ai/ha) was 95 and the “Plant response rating, Chamomile” value [9, 17] was 100. For the same molecule, the “Plant response rating, Chamomile” value [9, 18] was 100, the “Plant response rating, Chamomile” value [9, 19] was 100 and the “Plant response rating, Chamomile” value [9, 20] was 70. For the same molecule, the “Plant response rating, Barley, Spring” value [10, 14] was 0, the “Plant response rating, Barley, Spring” value [10, 15] was 5 and the “Plant response rating, Barley, Spring” value [10, 16] was 10. For the same molecule, the “Plant response rating (scale of 0 to 100), Barley, Spring” value ([10]; Preemergence, 31 g ai/ha) was 0, the “Plant response rating, Barley, Spring” value [10, 17] was 0 and the “Plant response rating, Barley, Spring” value [10, 18] was 0. The “Barley, Spring plant response rating” value [10, 19] was 5, the “Plant response rating, Barley, Spring” value [10, 20] was 0 and the “Galium plant response rating” value [11, 14] was 100. For the same molecule, the “Plant response rating, Galium” value [11, 15] was 100, the “Plant response rating, Galium” value [11, 16] was 100 and the “Plant response rating (scale of 0 to 100), Galium” value ([11]; Preemergence, 31 g ai/ha) was 70. For the same molecule, the “Plant response rating, Galium” value [11, 17] was 85, the “Plant response rating, Galium” value [11, 18] was 95 and the “Plant response rating, Galium” value [11, 19] was 100. The “Plant response rating, Galium” value [11, 20] was 100, the “Radish, Wild plant response rating” value [12, 14] was 5 and the “Plant response rating, Radish, Wild” value [12, 15] was 20. For the same molecule, the “Plant response rating, Radish, Wild” value [12, 16] was 65, the “Plant response rating (scale of 0 to 100), Radish, Wild” value ([12]; Preemergence, 31 g ai/ha) was 0 and the “Plant response rating, Radish, Wild” value [12, 18] was 15. The “Plant response rating, Radish, Wild” value [12, 19] was 60, the “Plant response rating, Radish, Wild” value [12, 20] was 10 and the “Plant response rating, Barley, Winter” value [13, 14] was 0. For the same molecule, the “Plant response rating, Barley, Winter” value [13, 15] was 0, the “Plant response rating, Barley, Winter” value [13, 16] was 10 and the “Plant response rating (scale of 0 to 100), Barley, Winter” value ([13]; Preemergence, 31 g ai/ha) was 0. The “Plant response rating, Barley, Winter” value [13, 17] was 0, the “Plant response rating, Barley, Winter” value [13, 18] was 5 and the “Barley, Winter plant response rating” value [13, 19] was 15. The “Plant response rating, Barley, Winter” value [13, 20] was 0.
